Data as given in patent US9598387B2 (Southern Research Institute, priority 2012, dated 2017).

Legend:
Long Evans rats = test: Cocaine self-administration under PR schedule of reinforcement; type: in vivo, rat; details: 3.75, 7.5 or 15 mg/kg intraperitoneally 10 minutes prior to session; compared to vehicle, ps<0.05; cocaine 0.375, 0.75, […]
Protocol: These studies were performed using Long Evans rats using standard protocols (Quinlan M. G. et al. Psychopharmacol. 2004, 175, 53-59; Ranaldi, R. et al. Behav. Pharmacol. 2011, 22, 347-353). Cocaine self-administration sessions were conducted in sixteen operant chambers; eight measuring 30×22×27 cm (l×w×h) and the other eight measuring 26×26×30 cm (l×w×h). Each chamber was situated inside a sound-attenuating box and was equipped with two retractable levers, a white light above each lever, and a tether. Polyethylene tubing, covered by the tether, connected the animal, through a fluid swivel, to a syringe in a syringe pump (Razel, 3.33 rpm). Cocaine was dissolved in 0.9% saline to achieve doses of 0.375, 0.75 and 1.5 mg/kg/injection. […] Each animal was tested with one dose of the D3 antagonist, randomly determined, at as many of the three cocaine doses as possible. After a particular test the animal's cocaine dose was changed to another one (randomly determined) and its baseline BP on the new dose was established. BP during the test session was expressed as the percentage of the average BP obtained during the last three baseline sessions. Percentage of baseline BP and final ratio (i.e. the number of lever presses required for the BP infusion) were analyzed using separate two-way analyses of variance (ANOVAs) with dose of 113 and dose of cocaine as between-groups factors. […]

[1] = molecular target: human D3 dopamine receptor (Homo sapiens (Human), UniProt P35462); test: Whole Cell Adenylyl Cyclase Assay, D3; type: cell-based; details: inhibition of forskolin (100 μM) stimulated cAMP, normalized to quinpirole; compound conc ≥10× Ki (per compound); mean ± S.E.M.
Rats = test: Cue-induced reinstatement of cocaine-seeking; type: in vivo, rat; details: 3 doses ip 20 minutes before reinstatement session
Protocol: Rats were trained to self-administer cocaine (1.0 mg/kg/injection) under a FR1 schedule of reinforcement in daily 3-h sessions and, after stable responding was established (as described above) the schedule was changed to FR3. After stable responding under the FR3 schedule was established, extinction training began. Stable responding was defined as follows: 12 consecutive sessions in which total rewards per session was greater than 20 and in which total rewards per session for the last three sessions was within ±10% of the mean of the three sessions. […] After extinction criteria were met each rat was tested in one 1-h reinstatement session; each rat received an ip injection of vehicle or one of 3 doses of the test compound and 20 minutes later was placed in the operant chamber. At the start of the reinstatement session the cocaine-associated cues (light on for 20 s and pump on for 4.5 s) were presented twice, once at 25 sec and again at 2 min into the session. Presses on the active lever illuminated the light and activated the pump.

Chain of human D3 dopamine receptor (P35462 whole entry): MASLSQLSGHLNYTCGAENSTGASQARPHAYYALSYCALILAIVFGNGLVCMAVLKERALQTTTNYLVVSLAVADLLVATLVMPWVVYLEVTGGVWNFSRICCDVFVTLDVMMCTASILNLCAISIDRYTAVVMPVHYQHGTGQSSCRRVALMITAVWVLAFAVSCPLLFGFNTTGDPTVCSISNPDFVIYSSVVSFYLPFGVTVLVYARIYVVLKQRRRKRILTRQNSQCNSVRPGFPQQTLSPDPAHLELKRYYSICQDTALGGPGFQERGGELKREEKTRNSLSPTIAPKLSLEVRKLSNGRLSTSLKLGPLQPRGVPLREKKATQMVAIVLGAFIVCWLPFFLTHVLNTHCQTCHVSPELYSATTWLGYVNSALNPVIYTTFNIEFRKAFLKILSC

Structure (SMILES): CC(C)(C)c1nc(N2CCN(CCCCNC(=O)c3cn4ccccc4n3)CC2)cc(C(F)(F)F)n1 [Compound 113, N-(4-(4-(2-(tert-Butyl)-6-(trifluoromethyl)pyrimidin-4-yl)piperazin-1-yl)butyl)imidazo[1,2-a]pyridine-2-carboxamide]
- percentage of baseline BPs for cocaine under PR schedule (Long Evans rats): significant reductions in the percentage of baseline BPs
- D3 Cyclase % Inhibition Normalized [1]: 27.7 ± 7.0%
- cue-induced reinstatement (active lever presses, 1-h test) (Rats): strongly reduced in a dose-related fashion
